The target of one data set is T1, mouse DGAT1 (Mus musculus, UniProt Q9Z2A7).
T1 construct: made in house; host or cells: insect cells (High Five, Sf9, Sf21, etc.), baculovirus expression system (Invitrogen)
T1 sequence (Q9Z2A7 1-498): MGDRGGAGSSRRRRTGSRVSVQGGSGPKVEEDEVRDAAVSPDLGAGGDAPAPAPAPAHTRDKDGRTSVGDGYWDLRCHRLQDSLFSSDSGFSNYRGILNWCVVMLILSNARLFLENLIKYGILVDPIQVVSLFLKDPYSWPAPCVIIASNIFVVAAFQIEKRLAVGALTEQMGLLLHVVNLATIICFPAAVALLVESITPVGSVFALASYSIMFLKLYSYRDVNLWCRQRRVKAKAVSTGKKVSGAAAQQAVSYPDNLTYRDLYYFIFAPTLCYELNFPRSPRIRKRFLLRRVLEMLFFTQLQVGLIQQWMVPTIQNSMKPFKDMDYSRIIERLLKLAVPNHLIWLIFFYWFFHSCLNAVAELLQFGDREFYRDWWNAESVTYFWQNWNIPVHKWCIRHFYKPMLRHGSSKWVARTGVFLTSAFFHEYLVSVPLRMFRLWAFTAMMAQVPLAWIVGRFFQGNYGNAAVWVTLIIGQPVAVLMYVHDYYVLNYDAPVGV
As to the kind of experiment: DGAT1 inhibitory effect test (microsome fraction, [14C]-oleoyl-CoA, triglyceride radioactivity by TLC). The class given is biochemical. The conditions noted are these: 0.5 h; concentration of the test compound 0.1 μg/ml; mouse DGAT1 microsomes, 23° C., 30 minutes; read-out: Inhibitory ratio. As for the experimental part: The cDNA which encodes mouse DGAT1 was cloned from a mouse cDNA library by polymerase chain reaction (hereinafter referred to as “PCR”) and introduced into an insect cell virus vector (baculovirus expression system, Invitrogen). After insect cells (High Five, Sf9, Sf21, etc., Invitrogen) were infected with the virus, the cells were collected in buffer A [0.1M sucrose, 50 mM KCl, 40 mM potassium phosphate (pH 7.4), 30 mM EDTA, 1% Protease inhibitor cocktail (SIGMA, P-8340)] and crushed with a Polytron homogenizer. The supernatant obtained by subjecting the homogenate to low speed centrifugal processing (10,000 ×g, 30 minutes) was further subjected to higher-speed centrifugal processing (100,000 ×g, 60 minutes) and the precipitate was resuspended in buffer A as the microsome fraction and used as DGAT1 enzyme. The DGAT1 enzyme was divided into small volumes and stored at −80° C.
(2) DGAT1 Inhibitory Effect Test
The reaction liquid of the following composition [175 mM Tris-HCl (pH 8.0), 8 mM MgCl2, 1 mg/ml BSA, 0.5 mM 1,2-dioleoyl-sn-glycerol (EtOH solution of 10-fold concentration, 10% added), 30 μM[14C]-oleoyl-CoA (about 50 mCi/mmol), 0.5% triton X-100, DGAT1 enzyme (10 μg) obtained in Test Example 1(1), test compound or vehicle (DMSO/MeOH, 7:3 solution, 5% added), total volume 50 μl] was incubated at room temperature (23° C.) for 30 minutes. A reaction terminating solution (70 μl) consisting of isopropanol/1-heptane/water (80:20:2, v/v/v) was added to the reaction solution and stirred, and subsequently stirred with water (30 μl) and 1-heptane (100 μl). The 1-heptane layer (50 μl) was spotted onto a TLC plate and developed with a developing solvent consisting of 1-hexane/diethyl ether/acetic acid (85:15:1, v/v/v). Radioactivity of triglyceride fraction was quantified by BAS2000 bio image analyzer (Fuji Film) and the inhibitory effect of the test compounds was calculated by the following formula through comparison with control. Here, radioactivity at no reaction (0 minutes incubation) was assumed as background. Inhibitory ratio=100−[(Radioactivity when test compound was added)−(Background)]/[(Radioactivity by control)−(Background)]×100

As to `CC(C)c1ccc(NC(=O)Nc2ccc(N3CCN(C(=O)OC(C)(C)C)CC3)cc2)cc1` [Example 22, 4-{4-[3-(4-isopropyl-phenyl)-ureido]-phenyl}-piperazine-1-carboxylic acid tert-butyl ester], the melting point was 210 °C. Further, the inhibition at 0.1 µg/mL at mouse DGAT1 is ≥ 50%.

`CC(C)(C)OC(=O)N1CCN(c2ccc(NC(=O)Nc3ccc(C(C)(C)C)cc3)cc2)CC1` [Example 33, 4-{4-[3-(4-tert-butyl-phenyl)-ureido]-phenyl}-piperazine-1-carboxylic acid tert-butyl ester] yielded a melting point of 140 to 141 °C. Moreover, the inhibition at 0.1 µg/mL on mouse DGAT1 was ≥ 50%.

Take `Cc1ccc(Cl)cc1NC(=O)Nc1ccc(N2CCN(C(=O)OC(C)(C)C)CC2)cc1` [Example 35, 4-{4-[3-(5-chloro-2-methyl-phenyl)-ureido]-phenyl}-piperazine-1-carboxylic acid tert-butyl ester]: the melting point amounted to 200 °C. At mouse DGAT1, the inhibition at 0.1 µg/mL was ≥ 50%.

Turning to `Cc1ccc(F)c(NC(=O)Nc2ccc(N3CCN(C(=O)OC(C)(C)C)CC3)cc2)c1` [Example 37, 4-{4-[3-(2-fluoro-5-methyl-phenyl)-ureido]-phenyl}-piperazine-1-carboxylic acid tert-butyl ester], the melting point lay within 211 to 214 °C. For the same compound, the inhibition at 0.1 µg/mL at mouse DGAT1 is ≥ 50%.

Consider `CCOc1ccccc1NC(=O)Nc1ccc(N2CCN(C(=O)OC(C)(C)C)CC2)nc1` [Example 39, 4-{5-[3-(2-ethoxy-phenyl)-ureido]-pyridin-2-yl}-piperazine-1-carboxylic acid tert-butyl ester], for which the melting point was 162 °C. The inhibition at 0.1 µg/mL on mouse DGAT1 is ≥ 50%.

Compound `COc1ccc(Cl)cc1NC(=O)Nc1ccc(N2CCN(C(=O)OC(C)(C)C)CC2)nc1` [Example 40, 4-{5-[3-(5-chloro-2-methoxy-phenyl)-ureido]-pyridin-2-yl}-piperazine-1-carboxylic acid tert-butyl ester] had a melting point of 155 to 157 °C. Moreover, on mouse DGAT1, the inhibition at 0.1 µg/mL is ≥ 50%.

With `CCOc1ccc(F)cc1NC(=O)Nc1ccc(N2CCN(C(=O)OC(C)(C)C)CC2)nc1` [Example 46, 4-{5-[3-(2-ethoxy-5-fluoro-phenyl)-ureido]-pyridin-2-yl}-piperazine-1-carboxylic acid tert-butyl ester], the melting point was 180 °C. Further, the inhibition at 0.1 µg/mL on mouse DGAT1 is ≥ 50%.

As for `COc1ccc(C)cc1NC(=O)Nc1ccc(N2CCN(C(=O)Nc3ccccc3C(F)(F)F)CC2)cc1` [Example 53, 4-{4-[3-(2-methoxy-5-methyl-phenyl)-ureido]-phenyl}-piperazine-1-carboxylic acid (2-trifluoromethyl-phenyl)-amide], the melting point fell in the range of 170 to 171 °C. In addition, the inhibition at 0.1 µg/mL on mouse DGAT1 is ≥ 50%.

For `COc1ccc(C)cc1NC(=O)Nc1ccc(N2CCN(C(=O)Nc3ccccc3C)CC2)cc1` [Example 54, 4-{4-[3-(2-methoxy-5-methyl-phenyl)-ureido]-phenyl}-piperazine-1-carboxylic acid o-tolylamide], the melting point lay in the range of 209 to 211 °C. Besides, the inhibition at 0.1 µg/mL at mouse DGAT1 is ≥ 50%.

In turn, `COc1ccc(C)cc1NC(=O)Nc1ccc(N2CCN(C(=O)Nc3ccccc3Br)CC2)cc1` [Example 57, 4-{4-[3-(2-methoxy-5-methyl-phenyl)-ureido]-phenyl}-piperazine-1-carboxylic acid (2-bromo-phenyl)-amide] came in with a melting point of 212 to 214 °C. At mouse DGAT1, the inhibition at 0.1 µg/mL was ≥ 50%.

`CCc1ccccc1NC(=O)N1CCN(c2ccc(NC(=O)Nc3cc(C)ccc3OC)cc2)CC1` [Example 58, 4-{4-[3-(2-methoxy-5-methyl-phenyl)-ureido]-phenyl}-piperazine-1-carboxylic acid (2-ethyl-phenyl)-amide] had a melting point of 220 to 221 °C. Also, on mouse DGAT1, the inhibition at 0.1 µg/mL is ≥ 50%.

`COc1ccc(C)cc1NC(=O)Nc1ccc(N2CCN(C(=O)Nc3c(C)cccc3Cl)CC2)cc1` [Example 59, 4-{4-[3-(2-methoxy-5-methyl-phenyl)-ureido]-phenyl}-piperazine-1-carboxylic acid (2-chloro-6-methyl-phenyl)-amide] registered a melting point of 143 to 145 °C. Also, the inhibition at 0.1 µg/mL at mouse DGAT1 was ≥ 50%.

As to `COc1ccc(C)cc1NC(=O)Nc1ccc(N2CCN(C(=O)Nc3c(C)cccc3[N+](=O)[O-])CC2)cc1` [Example 60, 4-{4-[3-(2-methoxy-5-methyl-phenyl)-ureido]-phenyl}-piperazine-1-carboxylic acid (2-methyl-6-nitro-phenyl)-amide], the melting point was 213 to 215 °C. Also, the inhibition at 0.1 µg/mL on mouse DGAT1 was ≥ 50%.

Regarding `COc1ccc(C)cc1NC(=O)Nc1ccc(N2CCN(C(=O)Nc3ccccc3C#N)CC2)cc1` [Example 61, 4-{4-[3-(2-methoxy-5-methyl-phenyl)-ureido]-phenyl}-piperazine-1-carboxylic acid (2-cyano-phenyl)-amide], the melting point was in the range of 210 to 212 °C. Besides, the inhibition at 0.1 µg/mL on mouse DGAT1 was ≥ 50%.

Compound `COc1ccc(C)cc1NC(=O)Nc1ccc(N2CCN(C(=O)Nc3c(C)cccc3C)CC2)cc1` [Example 62, 4-{4-[3-(2-methoxy-5-methyl-phenyl)-ureido]-phenyl}-piperazine-1-carboxylic acid (2,6-dimethyl-phenyl)-amide] showed a melting point of 212 to 214 °C. For the same compound, the inhibition at 0.1 µg/mL at mouse DGAT1 was ≥ 50%.

For `COc1ccc(C)cc1NC(=O)Nc1ccc(N2CCN(C(=O)Nc3c(F)cccc3C(F)(F)F)CC2)cc1` [Example 64, 4-{4-[3-(2-methoxy-5-methyl-phenyl)-ureido]-phenyl}-piperazine-1-carboxylic acid (2-fluoro-6-trifluoromethyl-phenyl)-amide], the melting point fell in the range of 134 to 136 °C. Moreover, the inhibition at 0.1 µg/mL on mouse DGAT1 is ≥ 50%.

The compound `COc1ccc(C)cc1NC(=O)Nc1ccc(N2CCN(C(=O)Nc3c(Cl)cccc3Cl)CC2)cc1` [Example 65, 4-{4-[3-(2-methoxy-5-methyl-phenyl)-ureido]-phenyl}-piperazine-1-carboxylic acid (2,6-dichloro-phenyl)-amide] displayed a melting point of 210 to 221 °C. Moreover, the inhibition at 0.1 µg/mL at mouse DGAT1 was ≥ 50%.

With `COc1ccc(C)cc1NC(=O)Nc1ccc(N2CCN(C(=O)Nc3c(Cl)cccc3C(F)(F)F)CC2)cc1` [Example 66, 4-{4-[3-(2-methoxy-5-methyl-phenyl)-ureido]-phenyl}-piperazine-1-carboxylic acid (2-chloro-6-trifluoromethyl-phenyl)-amide], the melting point was 196 to 197 °C. In addition, the inhibition at 0.1 µg/mL on mouse DGAT1 is ≥ 50%.

As to `COc1ccc(NC(=O)N2CCN(c3ccc(NC(=O)Nc4cc(C)ccc4OC)cc3)CC2)c(C)c1` [Example 73, 4-{4-[3-(2-methoxy-5-methyl-phenyl)-ureido]-phenyl}-piperazine-1-carboxylic acid (4-methoxy-2-methyl-phenyl)-amide], the melting point was in the range of 193 to 195 °C. Besides, the inhibition at 0.1 µg/mL on mouse DGAT1 was ≥ 50%.

Take `COc1ccc(C)cc1NC(=O)Nc1ccc2c(c1)CCN(C(=O)Nc1ncccc1C)C2` [Example 297, 6-[3-(2-methoxy-5-methyl-phenyl)-ureido]-3,4-dihydro-1H-isoquinoline-2-carboxylic acid (3-methyl-pyridin-2-yl)-amide]: on mouse DGAT1, the inhibition at 0.1 µg/mL was ≥ 50%.

In the case of `CCOP(=O)(Cc1ccc(NC(=O)N2CCN(c3ccc(NC(=O)Nc4cc(C)ccc4OC)cc3)CC2)c(C)c1)OCC` [Example 390, {4-[(4-{4-[3-(2-methoxy-5-methyl-phenyl)-ureido]-phenyl}-piperazine-1-carbonyl)-amino]-3-methyl-benzyl}-phosphonic acid diethyl ester], on mouse DGAT1, the inhibition at 0.1 µg/mL was ≥ 50%.

The term melting point denotes the temperature of the solid-liquid transition.

(Values after patent US20070249620A1, “Urea Derivative” (priority 2004, published 2007).)
